Format in all cases: in vivo, Parthenium argentatum
Assay [1] concerns guayule G7-11 plants. In words: Exogenous SA in tissue culture growth medium, rubber content by ASE. As to conditions: 8 weeks, versus 0 nM. On the procedure:
(§1) The effect of SA on guayule PaAos gene expression is tested in wild-type guayule G7-11 plants. SA is added to the growth medium (K0) in tissue culture at different concentrations, 0 nM, 10 nM and 100 nM. Shoot tips are transferred to the growth media, and plants are grown for 8 weeks. The rubber content of the plant tissues is determined by standard procedures (ASE, see Example 3 supra). […] The effect of exogenous 10 nM SA on one month old guayule plants grown in the soil under greenhouse conditions is also examined.

The test system of assay [2] is guayule G7-11 plants. Description: Exogenous SA applied to soil of greenhouse guayule, growth and rubber content. The conditions noted are these: 50 ml of 10 nM SA to soil twice weekly for two months. On the procedure: as §1
Assay [3] concerns PaAos. In words: qRT-PCR of PaAOS in SA treated soil-grown guayule. The conditions noted are these: 10 nM SA to soil twice weekly for two months. On the procedure: as §1
(In general: In qPCR the cycle at which signal appears reflects the starting amount.)

With `O=C(O)c1ccccc1O` [SA, salicylic acid], the “amount of rubber produced” value in assay [1] (10 nM SA in growth medium) and in assay [1] (100 nM SA in growth medium) was “increases the amount of rubber produced in a significant manner” in each case. The “height and primary stem diameter” value in assay [2] (versus mock or water treated) is “significant differences in the height and primary stem diameter”. For the same compound, the rubber content entry in assay [2] (versus mock treated) is “slightly increases and significantly differs”. Moreover, the “PaAOS expression (qRT-PCR)” value in assay [3] is recorded as “low expression pattern”.

(Values after US10982219B2, “Guayule with increased rubber production and yield” (The United States of America, as represented by the …, priority 2017, dated 2021).)
